Structures can show the parent of a compound that is named as a salt.
Columns and labels:
FXa = FXa (Homo sapiens, UniProt P00742); assay: Factor Xa inhibition (FXa-IC50); format: biochemical
From the text: The inhibition of factor Xa by the compounds according to the invention and the measurement of the anticoagulant and antithrombotic activity can be determined by conventional in-vitro or in-vivo methods. A suitable method is described, for example, by J. Hauptmann et al. in Thrombosis and Haemostasis 1990, 63, 220-223.
The inhibition of factor Xa can be measured, for example, by the method of T. Hara et al. in Thromb. Haemostas. 1994, 71, 314-319.

TF/FVIIa = TF/FVIIa (Homo sapiens, UniProt P08709); assay: TF/factor VIIa inhibition (TF/FVIIa-IC50); format: biochemical
Sequence of TF/FVIIa (P08709 213-466 limits assumed): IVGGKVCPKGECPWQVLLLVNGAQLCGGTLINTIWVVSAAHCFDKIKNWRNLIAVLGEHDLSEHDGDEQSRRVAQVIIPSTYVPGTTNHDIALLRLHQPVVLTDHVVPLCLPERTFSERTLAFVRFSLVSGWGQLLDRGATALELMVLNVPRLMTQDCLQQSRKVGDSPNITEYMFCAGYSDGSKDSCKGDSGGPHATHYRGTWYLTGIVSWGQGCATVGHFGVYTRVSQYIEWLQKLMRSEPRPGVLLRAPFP
Sequence of TF/FVIIa (P08709 61-212 partner limits assumed): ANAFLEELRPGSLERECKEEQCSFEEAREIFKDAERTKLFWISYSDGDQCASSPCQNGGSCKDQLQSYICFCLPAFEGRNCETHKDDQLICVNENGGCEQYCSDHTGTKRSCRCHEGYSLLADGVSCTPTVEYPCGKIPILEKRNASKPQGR
Sequence of TF/FVIIa (P13726 33-295 partner): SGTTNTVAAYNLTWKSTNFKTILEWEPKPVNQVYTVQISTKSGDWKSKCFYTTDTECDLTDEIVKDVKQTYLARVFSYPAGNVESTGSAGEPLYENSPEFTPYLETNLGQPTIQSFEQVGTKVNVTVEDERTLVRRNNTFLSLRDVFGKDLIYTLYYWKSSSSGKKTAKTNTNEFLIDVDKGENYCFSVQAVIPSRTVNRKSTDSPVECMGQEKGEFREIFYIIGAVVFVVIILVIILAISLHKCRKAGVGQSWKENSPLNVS
From the text: The inhibition of factor VIIa by the compounds according to the invention and the measurement of the anticoagulant and antithrombotic activity can be determined by conventional in-vitro or in-vivo methods. A conventional method for the measurement of the inhibition of factor Vila is described, for example, by H. F. Ronning et al. in Thrombosis Research 1996, 84, 73-81.

Sequence of FXa (P00742 235-488 limits assumed): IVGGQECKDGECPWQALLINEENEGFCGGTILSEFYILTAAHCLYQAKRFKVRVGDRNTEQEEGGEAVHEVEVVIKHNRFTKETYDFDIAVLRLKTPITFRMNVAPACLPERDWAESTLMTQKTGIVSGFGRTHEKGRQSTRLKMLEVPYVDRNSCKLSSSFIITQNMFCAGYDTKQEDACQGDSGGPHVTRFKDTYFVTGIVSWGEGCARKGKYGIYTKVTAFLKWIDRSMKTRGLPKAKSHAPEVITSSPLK
Sequence of FXa (P00742 41-179 partner limits assumed): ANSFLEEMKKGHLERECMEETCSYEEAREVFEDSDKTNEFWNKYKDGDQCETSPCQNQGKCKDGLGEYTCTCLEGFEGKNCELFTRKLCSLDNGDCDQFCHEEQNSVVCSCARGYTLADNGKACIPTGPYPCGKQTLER

Row | IC50 (FXa) [nM] | IC50 (TF/FVIIa) [nM] | SMILES
1 | 6 | 6.9 | CN1CCC(C2CCN(C(=O)[C@H](NC(=O)Nc3ccc(Cl)cc3)c3ccccc3)CC2)CC1 [Compound 1, (R)-1-(4-chlorophenyl)-3-[2-(1′-methyl-4,4′-bipiperidinyl-1-yl)-2-oxo-1-phenylethyl]urea]
2 | 670 | 1700 | O=C(Nc1ccc(Cl)cc1)N[C@@H](C(=O)N1CCN(c2ccc(F)cc2)CC1)c1ccccc1 [Compound 2, (R)-1-(4-chlorophenyl)-3-{2-[4-(4-fluorophenyl)piperazin-1-yl]-2-oxo-1-phenylethyl}urea]
3 | 17 | 6.3 | CN1CCC(N2CCN(C(=O)[C@H](NC(=O)Nc3ccc(Cl)cc3)c3ccccc3)CC2)CC1 [Compound 5, (R)-1-(4-chlorophenyl)-3-{2-[4-(1-methylpiperidin-4-yl)piperazin-1-yl]-2-oxo-1-phenylethyl}urea bistrifluoroacetate]
4 | 11 | 15 | CN1CCC(C2CCN(C(=O)[C@H](OC(=O)Nc3ccc(Cl)cc3)c3ccccc3)CC2)CC1 [Compound 49, 2-(1′-methyl-4,4′-bipiperidinyl-1-yl)-2-oxo-1-phenylethyl (R)-4-chlorophenyl)carbamate trifluoroacetate]

Source: patent publication US7951804B2, “Piperidinyl compounds” (Merck Patent GmbH, priority 2003, dated 2011)
